# Measured values reported in patent publication US20040110826A1, “Receptor Antagonists” (priority 2001, published 2004).
# What was measured:
# [1] = system: MPTP-treated common marmoset; test: Anti-dyskinesia activity: LID score in MPTP-treated common marmoset model with repeated L-DOPA; assay type: in vivo; settings: L-DOPA-induced dyskinesia (LID) score, test compound plus L-DOPA vs vehicle plus L-DOPA, 4 animals per group
# Description: Parkinson's disease is characterized by degeneration and neuronal cell death of the nigrostriatal dopaminergic neurons. In primates, treatment with a dopamine neurotoxin, 1-methyl-4-phenyl-1,2,3,6-tetrahydropyridine (hereinafter referred to as “MPTP”), causes selective degeneration and loss of the nigrostriatal dopaminergic neurons, showing akinesia, rigidity, etc. These MPTP-treated primates are known as a model of Parkinson's disease [Proceedings of the National Academy of Science USA, Vol. 80, p. 4546 (1983)]. Common marmoset belongs to Anthropoidea and is known to show Parkinsonian symptoms caused by MPTP treatment as in the case of other Anthropoidea [Neuroscience Letter, Vol. 57, p. 37 (1985)). On the other hand, current treatment for Parkinson's disease is based primarily on dopamine replacement therapy by administration of L-DOPA. The administration of L-DOPA is effective treatment of symptoms associated with Parkinson's disease (anti-Parkinson activity). However, the long-term therapy using L-DOPA is known to cause loss of medicinal efficacy (wearing off and on-off), dyskinesia, psychosis, etc. Particularly, L-DOPA-induced dyskinesia (hereinafter referred to as “LID”) has become an issue due to the frequency of its development and the pain of the patients. […] 731 (1995)].
# This test was carried out using 4 animals per group of female and male common marmosets of 5 to 7 years of age (300 to 375 g in body weight, CLEA Japan). MPTP (RBI) was dissolved in physiological saline for injection (Otsuka Pharmaceutical Co., Ltd.) and subcutaneously administered to each common marmoset once a day for 5 days in a dose of 2.0 mg/kg. More than six weeks after the administration, animals showing chronic symptoms of Parkinson's disease were used to prepare a model of dyskinesia. […] The locomotor activity was measured at 10-minute intervals for 12 hours by a computer-controlled automatic measuring apparatus. […]
# [2] = target: T1, α2C-adrenoceptor (Homo sapiens, UniProt P18825); settings: described in J. Pharmacol. Exp. Ther. 271, 1558 (1994) and Proc. Natl. Acad. Sci. USA 85, 6301 (1988); cited from earlier work
# T1 sequence (P18825 1-462): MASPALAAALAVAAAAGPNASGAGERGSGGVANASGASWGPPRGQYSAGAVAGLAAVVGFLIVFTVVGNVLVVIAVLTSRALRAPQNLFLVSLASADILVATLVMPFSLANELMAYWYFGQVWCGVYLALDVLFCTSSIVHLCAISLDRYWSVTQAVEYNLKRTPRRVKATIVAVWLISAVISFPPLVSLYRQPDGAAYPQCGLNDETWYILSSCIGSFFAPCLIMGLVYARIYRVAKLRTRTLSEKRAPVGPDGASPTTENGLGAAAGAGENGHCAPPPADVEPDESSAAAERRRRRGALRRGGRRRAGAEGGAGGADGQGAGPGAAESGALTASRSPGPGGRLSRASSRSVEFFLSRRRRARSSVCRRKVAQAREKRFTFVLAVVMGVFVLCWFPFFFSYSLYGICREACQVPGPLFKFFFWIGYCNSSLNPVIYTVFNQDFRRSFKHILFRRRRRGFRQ
SMILES,melting point,anti-dyskinesia activity [1],affinity to α2C-adrenoceptor [2]
"Nc1ncc(CN2CCN(Cc3ccncc3)CC2)c2nc(-c3ccco3)nn12 [Compound 35, 5-Amino-2-(2-furyl)-8-[4-(4-pyridylmethyl)piperazin-1-ylmethyl][1,2,4]triazolo[1,5-c]pyrimidine]",168.7 to 169.2 °C,,
CC1c2ccccc2CN1CC1=NCCN1 (stereo not shown) [BRL44408],,did not show anti-dyskinesia activity,low affinity
COc1ccccc1N1CCN(CCN2C(=O)c3ccccc3C(C)(C)C2=O)CC1 [ARC239],,showed anti-dyskinesia activity,having an affinity to α2C-adrenoceptor
c1ccc2c(c1)OCC(C1=NCCN1)O2 (stereo not shown) [idazoxan],,showed anti-dyskinesia activity,having an affinity to α2C-adrenoceptor
